The first test concerns WT-BaF3 cells. The test can be described thus: Cell antiproliferative activity assay (CCK-8), WT-BaF3 (broad-spectrum cytotoxicity). The test is classed as cell-based. Conditions: 72 h; WT-BaF3 cells (IL-3 supplemented), CCK-8, 3 days incubation. As to the method:
The activity of compounds against BRK kinase can be evaluated by their inhibition of the growth of the BRK kinase-stably transfected BaF3 cell line (BRK-BaF3) and wild-type BaF3 cells (WT-BaF3). […] The larger the ratio of the half-maximal growth inhibitory concentration (IC50) of a compound between WT-BaF3 and BRK-BaF3 cells, the better the selectivity of the compound.
(§1) BRK-BaF3, WT-BaF3, WEHI cell line, and breast cancer cell line T47D were cultured using RPMI 1640 Basal medium or DMEM (Dulbecco's Modified Eagle Medium) (Shanghai Peiyuan Biotechnology, L220KJ), supplemented with 10% FBS (Gibco, REF 10099-141C) and 1% P/S (Shanghai Peiyuan Biotechnology, S110JV), in an incubator (Thermo 3020) at 37°C with 5% CO2. Cell viability was above 95%. Cells were passaged at a 3:1 ratio every 3-4 days. For WT-BaF3 cells, WEHI cells were first cultured, and their culture supernatant was filtered through a 0.22 µm filter. This supernatant was added at 10% to the regular culture medium to supplement IL-3 required for WT-BaF3 cell proliferation, which served as the culture medium for WT-BaF3. For testing, cells were first collected and counted, then prepared into a cell suspension at 100,000 cells/mL and plated at 100 µL per well. Drug concentrations started from 10 µM and were serially diluted 3:1. After incubation for 3 days, 20 µL of CCK-8 detection reagent (Targetmol C005) was added to each well. After incubation for 2-4 hours, OD450 was measured using a microplate reader (Varioskan LUX, Thermo Scientific). After subtracting the blank background, the curve was fitted and the IC50 was calculated using XLfit software.
As a reminder, the IC50 is the concentration that inhibits the measured activity by half. The low end stands for greater potency, the high end for weaker potency. `Cc1cc(Nc2ncc3cc(-c4c(C)ncnc4C)cc(C(C)C)c3n2)c(F)cc1P(C)(C)=O` [II-59] had an IC50 of over 2.5 µM.

In turn, `Cc1nccnc1-c1cc(C)c2nc(Nc3ccc(P(C)(C)=O)cc3)ncc2c1` [II-68] displayed an IC50 of over 2.5 µM. As to `COc1cc(Nc2ncc3cc(-c4nccnc4C)cc(C(C)C)c3n2)cc(OC)c1P(C)(C)=O` [II-73], the IC50 lay in the range of 0.5 to 2.5 µM. Regarding `Cc1nccnc1-c1cc(C2CC2)c2nc(Nc3ccc(P(C)(C)=O)c(O)c3)ncc2c1` [II-75], the 50% inhibitory concentration (IC50) is over 2.5 µM. For `Cc1nccnc1-c1cc(C2CC2)c2nc(Nc3cc(O)c(P(C)(C)=O)cc3F)ncc2c1` [II-76], the IC50 was over 2.5 µM. Still for that read-out and setting: next, `Cc1c[nH]c(=O)cc1-c1cc(C(C)C)c2nc(Nc3cnn(C4COC4)c3C)ncc2c1` [III-41]: over 2.5 µM; `Cc1c[nH]c(=O)cc1-c1cc(C2CC2)c2nc(Nc3cnn(C4COC4)c3C)ncc2c1` [III-83]: over 2.5 µM; `Cc1nn(C)cc1Nc1ncc2cc(-c3c(C#N)cnn3C)cc(C(C)C)c2n1` [III-86]: over 2.5 µM. Same read-out and setting: for `Cc1nn(C)cc1Nc1ncc2cc(-c3c(C)ncnc3C)cc(C(C)C)c2n1` [III-93] the value was over 2.5 µM.

The compound `COCCn1cc(Nc2ncc3cc(-c4c(C)ncnc4C)cc(C(C)C)c3n2)c(C)n1` [III-94] registered an IC50 of over 2.5 µM. On the same count and under the same terms, for `Cc1nn(C2COC2)cc1Nc1ncc2cc(-c3c(C)ncnc3C)cc(C(C)C)c2n1` [III-95] the value was 0.5 to 2.5 µM; for `Cc1nn(CC(N)=O)cc1Nc1ncc2cc(-c3cncnc3C)cc(C(C)C)c2n1` [III-96], over 2.5 µM; for `Cc1nn(C2COC2)cc1Nc1ncc2cc(-c3c(C)ncnc3C)cc(C3CC3)c2n1` [III-98], 0.5 to 2.5 µM.

`Cc1nn(C2COC2)cc1Nc1ncc2cc(-c3nccnc3C)cc(C(C)C)c2n1` [III-104] yielded an IC50 of over 2.5 µM. The same measure, in the same setting: for `Cc1nn(C2CCN(C)CC2)cc1Nc1ncc2cc(-c3nccnc3C)cc(C(C)C)c2n1` [III-106] the value was 0.5 to 2.5 µM.

In turn, `Cc1nccnc1-c1cc(C(C)C)c2nc(Nc3cnn(C4CCN(C)CC4)c3C)ncc2c1` [III-107] returned an IC50 of over 2.5 µM.

`Cc1nn(CCN)cc1Nc1ncc2cc(-c3nccnc3C)cc(C(C)C)c2n1` [III-108] returned an IC50 of 0.1 to 0.5 µM. Same read-out and setting: next, `CCN(C)CCn1cc(Nc2ncc3cc(-c4nccnc4C)cc(C(C)C)c3n2)c(C)n1` [III-109]: over 2.5 µM; `COCCN(C)CCn1cc(Nc2ncc3cc(-c4nccnc4C)cc(C(C)C)c3n2)c(C)n1` [III-110]: over 2.5 µM; `Cc1nn(CC(N)=O)cc1Nc1ncc2cc(-c3nccnc3C)cc(C(C)C)c2n1` [III-111]: over 2.5 µM. On the same count and under the same terms, next, `Cc1nn(CCN=S(C)(C)=O)cc1Nc1ncc2cc(-c3nccnc3C)cc(C(C)C)c2n1` [III-112]: over 2.5 µM; `Cc1nn(C2COC2)cc1Nc1ncc2cc(-c3nccnc3C)cc(C3CC3)c2n1` [III-113]: 0.5 to 2.5 µM; `Cc1nn(CC(N)=O)cc1Nc1ncc2cc(-c3nccnc3C)cc(C3CC3)c2n1` [III-114]: 0.5 to 2.5 µM.

With `Cc1nn(C)cc1Nc1ncc2cc(-c3cncc(F)c3C(N)=O)cc(C(C)C)c2n1` [III-127], the IC50 is over 2.5 µM. On the same count and under the same terms, for `Cc1nn(CC(N)=O)cc1Nc1ncc2cc(-c3cccnc3C)cc(C(C)C)c2n1` [III-128] the value was over 2.5 µM.

For a further test, the system named is BRK-BaF3 cells. The test can be described thus: Cell antiproliferative activity assay (CCK-8), BRK-BaF3. Format: cell-based. Conditions: 72 h, CCK-8, 3 days incubation. Summed up: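 Growth inhibition over 3 days, with compound serially diluted 3-fold from a 10 µM top concentration. Cells seeded at 100,000 cells/mL; WT-BaF3 medium carried 10% WEHI supernatant as the IL-3 source. Viability read by CCK-8 OD450 after 2-4 h; IC50 from blank-subtracted curve fit.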
`Cc1cc(Nc2ncc3cc(-c4c(C)ncnc4C)cc(C(C)C)c3n2)c(F)cc1P(C)(C)=O` [II-59] yielded an IC50 of 0.02 to 0.1 µM. On to `Cc1nccnc1-c1cc(C)c2nc(Nc3ccc(P(C)(C)=O)cc3)ncc2c1` [II-68], for which the IC50 lay within 0.02 to 0.1 µM. On the same count and under the same terms, for `COc1cc(Nc2ncc3cc(-c4nccnc4C)cc(C(C)C)c3n2)cc(OC)c1P(C)(C)=O` [II-73] the value was at most 0.02 µM; for `Cc1nccnc1-c1cc(C2CC2)c2nc(Nc3ccc(P(C)(C)=O)c(O)c3)ncc2c1` [II-75], at most 0.02 µM.

Compound `Cc1nccnc1-c1cc(C2CC2)c2nc(Nc3cc(O)c(P(C)(C)=O)cc3F)ncc2c1` [II-76] registered a concentration for half-maximal inhibition (IC50) of at most 0.02 µM. The compound `Cc1c[nH]c(=O)cc1-c1cc(C(C)C)c2nc(Nc3cnn(C4COC4)c3C)ncc2c1` [III-41] yielded an IC50 of at most 0.02 µM. For `Cc1c[nH]c(=O)cc1-c1cc(C2CC2)c2nc(Nc3cnn(C4COC4)c3C)ncc2c1` [III-83], the IC50 was at most 0.02 µM. On the same count and under the same terms, next, `Cc1nn(C)cc1Nc1ncc2cc(-c3c(C#N)cnn3C)cc(C(C)C)c2n1` [III-86]: at most 0.02 µM.

On to `Cc1nn(C)cc1Nc1ncc2cc(-c3c(C)ncnc3C)cc(C(C)C)c2n1` [III-93], for which the IC50 is at most 0.02 µM. Regarding `COCCn1cc(Nc2ncc3cc(-c4c(C)ncnc4C)cc(C(C)C)c3n2)c(C)n1` [III-94], the IC50 was at most 0.02 µM. Take `Cc1nn(C2COC2)cc1Nc1ncc2cc(-c3c(C)ncnc3C)cc(C(C)C)c2n1` [III-95]: the half-inhibitory concentration (IC50) fell in the range of 0.02 to 0.1 µM.

The compound `Cc1nn(CC(N)=O)cc1Nc1ncc2cc(-c3cncnc3C)cc(C(C)C)c2n1` [III-96] had an IC50 of 0.02 to 0.1 µM. Same read-out and setting: for `Cc1nn(C2COC2)cc1Nc1ncc2cc(-c3c(C)ncnc3C)cc(C3CC3)c2n1` [III-98] the value was 0.02 to 0.1 µM; for `Cc1nn(C2COC2)cc1Nc1ncc2cc(-c3nccnc3C)cc(C(C)C)c2n1` [III-104], at most 0.02 µM; for `Cc1nn(C2CCN(C)CC2)cc1Nc1ncc2cc(-c3nccnc3C)cc(C(C)C)c2n1` [III-106], at most 0.02 µM. The same measure, in the same setting: for `Cc1nccnc1-c1cc(C(C)C)c2nc(Nc3cnn(C4CCN(C)CC4)c3C)ncc2c1` [III-107] the value was at most 0.02 µM; for `Cc1nn(CCN)cc1Nc1ncc2cc(-c3nccnc3C)cc(C(C)C)c2n1` [III-108], at most 0.02 µM; for `CCN(C)CCn1cc(Nc2ncc3cc(-c4nccnc4C)cc(C(C)C)c3n2)c(C)n1` [III-109], at most 0.02 µM. Still for that read-out and setting: next, `COCCN(C)CCn1cc(Nc2ncc3cc(-c4nccnc4C)cc(C(C)C)c3n2)c(C)n1` [III-110]: at most 0.02 µM; `Cc1nn(CC(N)=O)cc1Nc1ncc2cc(-c3nccnc3C)cc(C(C)C)c2n1` [III-111]: at most 0.02 µM.

The compound `Cc1nn(CCN=S(C)(C)=O)cc1Nc1ncc2cc(-c3nccnc3C)cc(C(C)C)c2n1` [III-112] gave an IC50 of 0.02 to 0.1 µM. The same measure, in the same setting: for `Cc1nn(C2COC2)cc1Nc1ncc2cc(-c3nccnc3C)cc(C3CC3)c2n1` [III-113] the value was at most 0.02 µM; for `Cc1nn(CC(N)=O)cc1Nc1ncc2cc(-c3nccnc3C)cc(C3CC3)c2n1` [III-114], at most 0.02 µM; for `Cc1nn(C)cc1Nc1ncc2cc(-c3cncc(F)c3C(N)=O)cc(C(C)C)c2n1` [III-127], 0.02 to 0.1 µM. As for `Cc1nn(CC(N)=O)cc1Nc1ncc2cc(-c3cccnc3C)cc(C(C)C)c2n1` [III-128], the IC50 was at most 0.02 µM.

In another test the test system is T47D cells. Nature of the test: Cell antiproliferative activity assay (CCK-8), T47D. The test is classed as cell-based. The conditions noted are these: Homo sapiens, 72 h, breast cancer cell line T47D, incubation for 3 days. As to the method: as §1
In addition, the following table exemplarily lists the IC50 values of some compounds of the present invention against T47D cells.
Turning to `COc1cc(Nc2ncc3cc(-c4cccnc4)cc(C4CC4)c3n2)ccc1P(C)(C)=O` [II-65], the IC50 was at most 0.5 µM.

The values are drawn from patent publication EP4803513A1, “SUBSTITUTED QUINAZOLINE COMPOUND, PREPARATION METHOD THEREFOR, PHARMACEUTICAL COMBINATION THEREOF, AND USE THEREOF” (Hongyun Biotech Co., Ltd., priority 2023, dated 2025).
